Results from patent US5834461A, “Tricyclic benzazepine vasopressin antagonists” (American Cyanamid Company, priority 1997, dated 1998).
One block for each molecule: values may come before it.

Legend:
[1] = target: vasopressin V1 receptor (rat liver plasma membranes) (Rattus norvegicus, UniProt P30560); experiment: Binding Assay to Rat Hepatic V1 Receptors; conditions: rat hepatic V1
Description: Rat liver plasma membranes expressing the vasopressin V1 receptor subtypes are isolated by sucrose density gradient according to the method described by Lesko et al., (1973). These membranes are quickly suspended in 50.0 mM Tris.HCl buffer, pH 7.4, containing 0.2% bovine serum albumin (BSA) and 0.1 mM phenylmethylsulfonylfluoride (PMSF) and kept frozen at -70° C. until used in subsequent binding experiments. For binding experiments, the following is added to the wells of a ninety-six well format microtiter plate: 100 μl of 100.0 mM Tris.HCl buffer containing 10.0 mM MgCl2, 0.2% heat inactivated BSA and a mixture of protease inhibitors: leupeptin, 1.0 mg %; aprotinin, 1.0 mg %; 1,10-phenanthroline,2.0 mg %; trypsin inhibitor, 10.0 mg % and 0.1 mM PMSF, 20.0 μl of [phenylalanyl-3,4,5,-^3 H] vasopressin (S.A. 45.1 Ci/mmole) at 0.8 nM, and the reaction initiated by the addition of 80 μl of tissue membranes containing 20 μg of tissue protein. The plates are kept undisturbed on the bench top at room temperature for 120 min. to reach equilibrium. Non-specific samples are assayed in the presence of 0.1 μM of the unlabeled antagonist phenylalanylvasopressin, added in 20.0 μl volume.
For test compounds, these are solubilized in 50% dimethylsulfoxide (DMSO) and added in 20.0 μl volume to a final incubation volume of 200 μl. Upon completion of binding, the content of each well is filtered off, using a Brandel® cell Harvester (Gaithersburg, Md.). The radioactivity trapped on the filter disk by the ligand-receptor complex is assessed by liquid scintillation counting in a Packard LS Counter, with an efficiency of 65% for tritium.

[2] = target: T1, rat kidney medullary V2 receptors (Rattus norvegicus, UniProt Q00788); experiment: Binding Assay to Rat Kidney Medullary V2 Receptors; conditions: rat kidney medullary V2
T1 construct: Medullary tissues from rat kidneys are dissected out; from tissue; host or cells: rat kidney medulla membranes
Description: Medullary tissues from rat kidneys are dissected out, cut into small pieces and soaked in a […] sodium chloride solution containing 1.0 mM EDTA with many changes of the liquid phase, until the solution is clear of blood. The tissue is homogenized in a 0.25M sucrose solution containing 1.0 mM EDTA and 0.1 mM PMSF using a Potter-Elvehjem homogenizer with a teflon pestle. The homogenate is filtered through several layers (4 layers) of cheese cloth. The filtrate is rehomogenized using a dounce homogenizer, with a tight fitting pestle. The final homogenate is centrifuged at 1500×g for 15 min. The nuclear pellet is discarded and the supernatant fluid recentrifuged at 40,000×g for 30 min. The resulting pellet formed contains a dark inner part with the exterior, slightly pink. The pink outer part is suspended in a small amount of 50.0 mM Tris.HCl buffer, pH 7.4. The protein content is determined by the Lowry's method (Lowry et al., J. Biol. Chem., 1953). The membrane suspension is stored at -70° C., in 50.0 mM Tris.HCl, containing 0.2% inactivated BSA and 0.1 mM PMSF in aliquots of 1.0 ml containing 10.0 mg protein per ml of suspension until use in subsequent binding experiments.
For binding experiments, the following is added in μl volume to wells of a 96 well format of a microtiter plate: 100.0 μl of 100.0 mM Tris.HCl buffer containing 0.2% heat inactivated BSA, 10.0 mM MgCl2 and a mixture of protease inhibitors: leupeptin, 1.0 mg %; aprotinin, 1.0 mg %; 1,10-phenanthroline, 2.0 mg %; trypsin inhibitor, 10.0 mg % and 0.1 mM PMSF, 20.0 μl of [^3 H] Arginine^8, vasopressin (S.A. 75.0 Ci/mmole) at 0.8 nM and the reaction initiated by the addition of 80.0 μl of tissue membranes (200.0 μg tissue protein). The plates are left undisturbed on the bench top for 120 min to reach equilibrium. Non-specific binding is assessed in the presence of 1.0 μM of unlabeled ligand, added in 20 μl volume. For test compounds, these are solubilized in 50% dimethylsulfoxide (DMSO) and added in 20.0 μl volume to a final incubation volume of 200 μl. Upon completion of binding, the content of each well is filtered off, using a Brandel® cell Harvester (Gaithersburg, Md.). The radioactivity trapped on the filter disk by the ligand-receptor complex is assessed by liquid scintillation counting in a Packard LS Counter, with an efficiency of 65% for tritium.

vasopressin V2 = experiment: Vasopressin V2 Antagonist Activity in Conscious Hydrated Rats (diuretic effect); format: in vivo, normal Sprague-Dawley rats; conditions: AVP 0.4 μg/kg i.p.
Description: Conscious hydrated rats are treated with compounds under study from 0.1 to 100 mg/kg orally or vehicle. Two to four rats are used for each compound. One hour later, arginine vasopressin (AVP, antidiuretic hormore, ADH) dissolved in peanut oil is administered at 0.4 μg/kg intraperitoneally. Two rats in each test would not receive arginine vasopressin but only the vehicle (peanut oil) to serve as water-loading control. Twenty minutes later each rat is given 30 mL/kg of deionized water orally by gavage and is placed individually in a metabolic cage equipped with a funnel and a graduated glass cylinder to collect urine for four hours. Urine volume is measured and osmolality analyzed by use of a Fiske One-Ten osmometer (Fiske Assoc., Norwood, Mass., USA). Urinary sodium, potassium, and chloride are analyzed by use of ion-specific electrodes in a Beckman E3 (Electrolyte 3) Analyzer. In the following results, […] and decreased osmolality relative to AVP-control indicates activity.

vasopressin V1 = experiment: Vasopressin V1 Antagonist Activity in Conscious Rats (vasopressin vasopressor response); format: in vivo, rat (spontaneously hypertensive rats); set-up: Average Change: unit not given here
Description: Conscious rats are restrained in a supine position with elastic tape. The area at the base of the tail is locally anesthetized by subcutaneous infiltration with 2% procaine (0.2 ml). Using aseptic technique the ventral caudal tail artery is isolated and a cannula made of PE 10 and 20 (heat-fused) tubing is passed into the lower abdominal aorta. The cannula is secured, heparinized (1000 i.u./cc), sealed and the wound closed with one or two stitches of Dexon 4-0. The caudal vein is also cannulated in the same manner for intravenous drug administration. The duration of the surgery is approximately 5 minutes. Additional local anesthesia (2% procaine or lidocaine) is provided as needed.
The animals are placed in plastic restraining cages in an upright position. The cannula is attached to a Statham P23Db pressure transducer and pulsatile blood pressure is recorded. […] The vasopressin injections are repeated 30, 60, 90, 120, 180, 240 and 300 min. later. Percentage of antagonism by the compound is calculated using the pre-drug vasopressin vasopressor response as 100%.

[3] = 10 mg/kg i.v., VAS 0.01 i.u./kg, 30 min
[4] = 10 mg/kg i.v., VAS 0.01 i.u./kg, 60 min
[5] = 10 mg/kg i.v., VAS 0.01 i.u./kg, 90 min
[6] = 10 mg/kg i.v., VAS 0.01 i.u./kg, 120 min
[7] = 10 mg/kg i.v., VAS 0.01 i.u./kg, 180 min
[8] = 10 mg/kg i.v., VAS 0.01 i.u./kg, 240 min
[9] = 10 mg/kg i.v., VAS 0.01 i.u./kg, 300 min
[10] = 10 mg/kg i.v., VAS 0.02 i.u./kg, 30 min
[11] = 10 mg/kg i.v., VAS 0.02 i.u./kg, 60 min
[12] = 10 mg/kg i.v., VAS 0.02 i.u./kg, 90 min
[13] = 10 mg/kg i.v., VAS 0.02 i.u./kg, 120 min
[14] = 10 mg/kg i.v., VAS 0.02 i.u./kg, 180 min
[15] = 10 mg/kg i.v., VAS 0.02 i.u./kg, 240 min
[16] = 10 mg/kg i.v., VAS 0.02 i.u./kg, 300 min
[17] = 20 mg/kg i.v., VAS 0.01 i.u./kg, 60 min
[18] = 20 mg/kg i.v., VAS 0.01 i.u./kg, 90 min
[19] = 20 mg/kg i.v., VAS 0.01 i.u./kg, 120 min
[20] = 20 mg/kg i.v., VAS 0.01 i.u./kg, 180 min
[21] = 20 mg/kg i.v., VAS 0.01 i.u./kg, 240 min
[22] = 20 mg/kg i.v., VAS 0.01 i.u./kg, 300 min
[23] = 20 mg/kg i.v., VAS 0.02 i.u./kg, 60 min
[24] = 20 mg/kg i.v., VAS 0.02 i.u./kg, 90 min
[25] = 20 mg/kg i.v., VAS 0.02 i.u./kg, 120 min
[26] = 20 mg/kg i.v., VAS 0.02 i.u./kg, 180 min
[27] = 20 mg/kg i.v., VAS 0.02 i.u./kg, 240 min
[28] = 20 mg/kg i.v., VAS 0.02 i.u./kg, 300 min

T1 sequence (Q00788 whole entry): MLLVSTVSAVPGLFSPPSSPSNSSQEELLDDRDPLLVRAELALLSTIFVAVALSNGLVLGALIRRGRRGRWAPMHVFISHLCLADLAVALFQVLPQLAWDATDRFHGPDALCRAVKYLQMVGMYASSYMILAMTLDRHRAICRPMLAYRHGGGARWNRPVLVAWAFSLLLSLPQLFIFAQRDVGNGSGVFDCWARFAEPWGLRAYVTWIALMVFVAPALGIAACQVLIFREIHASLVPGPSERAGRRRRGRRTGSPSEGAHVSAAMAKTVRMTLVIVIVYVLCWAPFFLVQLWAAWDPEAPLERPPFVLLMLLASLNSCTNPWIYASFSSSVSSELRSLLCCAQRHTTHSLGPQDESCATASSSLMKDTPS
vasopressin V1 receptor (rat liver plasma membranes), sequence (P30560 whole entry): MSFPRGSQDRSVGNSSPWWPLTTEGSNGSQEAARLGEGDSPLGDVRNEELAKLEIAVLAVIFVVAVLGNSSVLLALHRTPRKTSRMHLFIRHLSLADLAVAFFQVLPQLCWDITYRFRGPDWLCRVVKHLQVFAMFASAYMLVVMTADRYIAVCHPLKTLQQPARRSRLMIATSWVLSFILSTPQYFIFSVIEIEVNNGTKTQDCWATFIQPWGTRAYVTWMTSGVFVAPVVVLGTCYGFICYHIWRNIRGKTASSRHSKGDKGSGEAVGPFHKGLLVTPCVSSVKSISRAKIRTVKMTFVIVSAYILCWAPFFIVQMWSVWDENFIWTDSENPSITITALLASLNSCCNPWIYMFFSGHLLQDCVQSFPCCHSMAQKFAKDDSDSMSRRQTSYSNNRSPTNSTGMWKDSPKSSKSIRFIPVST

IC50 [1]: 320 nM | IC50 [2]: 140 nM
SMILES: Cc1ccccc1C(=O)Nc1ccc(C(=O)N2Cc3ccccc3C(C)c3ccccc32)cc1 (stereo not drawn) [Example 22]
Osmolality (vasopressin V2; 30 mg/kg orally): 738 mOsm/kg | Urine Volume (vasopressin V2; 30 mg/kg orally): 10.2 ml/4 hrs. | Average Change (vasopressin V1; [3]): 8.5 | Inhibition (vasopressin V1; [3]): 60% | Average Change (vasopressin V1; [4]): 11 | Inhibition (vasopressin V1; [4]): 49% | Average Change (vasopressin V1; [5]): 14 | Inhibition (vasopressin V1; [5]): 35% | Average Change (vasopressin V1; [6]): 17.5 | Inhibition (vasopressin V1; [6]): 19% | Average Change (vasopressin V1; [7]): 20 | Inhibition (vasopressin V1; [7]): 7% | Average Change (vasopressin V1; [8]): 28 | Inhibition (vasopressin V1; [8]): -30% | Average Change (vasopressin V1; [9]): 30 | Inhibition (vasopressin V1; [9]): -40% | Average Change (vasopressin V1; [10]): 18.5 | Inhibition (vasopressin V1; [10]): 56% | Average Change (vasopressin V1; [11]): 25 | Inhibition (vasopressin V1; [11]): 40% | Average Change (vasopressin V1; [12]): 13 | Inhibition (vasopressin V1; [12]): 69% | Average Change (vasopressin V1; [13]): 30 | Inhibition (vasopressin V1; [13]): 29% | Average Change (vasopressin V1; [14]): 36 | Inhibition (vasopressin V1; [14]): 14% | Average Change (vasopressin V1; [15]): 48 | Inhibition (vasopressin V1; [15]): -14% | Average Change (vasopressin V1; [16]): 52.5 | Inhibition (vasopressin V1; [16]): -25%

IC50 [1]: 52 nM | IC50 [2]: 68 nM
SMILES: CSc1ccccc1C(=O)Nc1ccc(C(=O)N2Cc3ccccc3Cc3ccccc32)cc1 [Example 61, N-[4-[(6.11-Dihydro-5H-dibenz[b.e]azepin-5-yl)-carbonyl]phenyl]-2-(methylthio)benzamide]
Osmolality (vasopressin V2; 10 mg/kg orally): 975 mOsm/kg | Urine Volume (vasopressin V2; 10 mg/kg orally): 9.3 ml/4 hrs. | Average Change (vasopressin V1; [3]): 21 | Inhibition (vasopressin V1; [3]): 26% | Average Change (vasopressin V1; [10]): 32.5 | Inhibition (vasopressin V1; [10]): 37% | Average Change (vasopressin V1; [17]): 13 | Inhibition (vasopressin V1; [17]): 54% | Average Change (vasopressin V1; [18]): 8 | Inhibition (vasopressin V1; [18]): 72% | Average Change (vasopressin V1; [19]): 12 | Inhibition (vasopressin V1; [19]): 58% | Average Change (vasopressin V1; [20]): 15.5 | Inhibition (vasopressin V1; [20]): 46% | Average Change (vasopressin V1; [21]): 12 | Inhibition (vasopressin V1; [21]): 58% | Average Change (vasopressin V1; [22]): 15.5 | Inhibition (vasopressin V1; [22]): 46% | Average Change (vasopressin V1; [23]): 14.5 | Inhibition (vasopressin V1; [23]): 72% | Average Change (vasopressin V1; [24]): 16.5 | Inhibition (vasopressin V1; [24]): 68% | Average Change (vasopressin V1; [25]): 20 | Inhibition (vasopressin V1; [25]): 61% | Average Change (vasopressin V1; [26]): 17.5 | Inhibition (vasopressin V1; [26]): 66% | Average Change (vasopressin V1; [27]): 23 | Inhibition (vasopressin V1; [27]): 55% | Average Change (vasopressin V1; [28]): 24 | Inhibition (vasopressin V1; [28]): 53%

IC50 [1]: 404 nM | IC50 [2]: 858 nM
SMILES: Cc1ccccc1C(=O)Nc1ccc(C(=O)N2Cc3ccccc3Sc3ccccc32)cc1 [Example 62, N-[4-[(Dibenz[b,f][1,4]thiazepin-10(11H)yl)carbonyl]-phenyl]-2-methylbenzamide]
Osmolality (vasopressin V2; 10 mg/kg orally): 1034 mOsm/kg | Urine Volume (vasopressin V2; 10 mg/kg orally): 7.7 ml/4 hrs. | Average Change (vasopressin V1; [3]): 57 | Inhibition (vasopressin V1; [3]): -44% | Average Change (vasopressin V1; [10]): 61.5 | Inhibition (vasopressin V1; [10]): -2% | Average Change (vasopressin V1; [17]): 13 | Inhibition (vasopressin V1; [17]): 67% | Average Change (vasopressin V1; [18]): 23 | Inhibition (vasopressin V1; [18]): 42% | Average Change (vasopressin V1; [19]): 23.5 | Inhibition (vasopressin V1; [19]): 41% | Average Change (vasopressin V1; [20]): 24.5 | Inhibition (vasopressin V1; [20]): 38% | Average Change (vasopressin V1; [21]): 30 | Inhibition (vasopressin V1; [21]): 24% | Average Change (vasopressin V1; [22]): 25 | Inhibition (vasopressin V1; [22]): 37% | Average Change (vasopressin V1; [23]): 29.5 | Inhibition (vasopressin V1; [23]): 51% | Average Change (vasopressin V1; [24]): 54 | Inhibition (vasopressin V1; [24]): 11% | Average Change (vasopressin V1; [25]): 50 | Inhibition (vasopressin V1; [25]): 17% | Average Change (vasopressin V1; [26]): 15 | Inhibition (vasopressin V1; [26]): 75% | Average Change (vasopressin V1; [27]): 40.5 | Inhibition (vasopressin V1; [27]): 33% | Average Change (vasopressin V1; [28]): 38 | Inhibition (vasopressin V1; [28]): 37%
